Results on three molecules are retold here after patent US6790838B2, “Combinations and methods for promoting in vivo liver cell proliferation and enhancing in vivo liver-directed gene transduction” (Amgen, Inc., priority 1999, dated 2004).

The subject of test [1] is hepatocytes. The following applies: retroviral vector given after growth factor administration; literature reports (Bosch 1996, Kosai 1998, Forbes 1998); cited from earlier work.
Test [2] relates to hepatocytes. Briefly: Hepatocyte proliferation in vivo by BrdU labeling after growth factor injection. Further details: species or system rat. The following applies: for zones of the liver showing cell proliferation / time after injection having maximum liver cell proliferation: KGF 1 mg/kg or T3 4 mg/kg s.c.; for proportion of hepatocytes proliferating (BrdU labelled, S-phase) at 24 hours: T3 4 mg/kg and/or KGF 1 mg/kg s.c. at 0 hours, BrdU 1 hour before sacrifice; for dose producing maximal hepatocyte proliferation at 24 hours: dose response curves, subcutaneous injection, single factor; for time after injection having maximum liver cell proliferation: time course 6-30 hours. On the procedure:
Male Wistar rats weighing 200-250 grams were used. They were housed in a temperature and light controlled room (12 hour light/dark cycle) and were allowed water and food ad libitum.
T3 (Sigma, St. Louis, Mo. USA), 4 mg per kilogram of body weight was dissolved in 100 μl of 0.01 M NaOH in […] NaCl and administered by subcutaneous injection in the flank region of the animal.
Lyophilized KGF (full lenght recombinant KGF, AMGEN, Thousand Oaks, Calif.) 1 mg per kilogram of body weight was dissolved in 100 μl of a suitable buffer (0.01% by weight polyoxyethylenesorbitan monolaurate (TWEEN 20, Sigma) solution) and administered by subcutaneous injection in the flank region of the animal.
Measurement of liver cell proliferation was performed by BrdU labeling. BrdU (Sigma) (50 mg/kg dissolved in 800 μl of 0.9% NaCl) was injected intraperitoneally 1 hour prior to sacrifice. Livers of the animals were removed and fixed in 60% methanol, 30% chloroform and 10% glacial acetic acid before routine histological processing and embedding in wax blocks. The incorporation of BrdU into hepatic nuclei was detected in 4 μm thick sections using a mouse monoclonal antibody (Dako, Glostrup, Denmark), followed by a biotinilated rabbit anti-mouse secondary antibody (Dako). Visualization was achieved by the indirect peroxidase technique using diaminobenzidine tetrahydrochloride dihydrate (Aldrich Chemical, Milwaukee, Wis. USA) as a substrate. The labeling index and percentage of hepatic mitoses was determined by counting 2000 hepatocytes per section from consecutive light microscopy fields. See Forbes, et al., Gene Therapy 5:552-555 at 553 (1998)(incorporated herein by reference in its entirety).
Dose response curves were initially performed to identify the dose at which KGF and T3 independently cause maximum hepatocyte proliferation at 24 hours.
The times after injection having maximum liver cell proliferation (as measured by DNA synthesis), were also independently established for each of the individual factors. An injection corresponding to the dose producing maximal cell proliferation, as established in Example 1, was independently administered to 2 groups of subjects, one group for each factor. Dividing cells were labelled by administering BrdU 1 hour prior to sacrifice. At 6, 9, 12, 15, 18, 24, and 30 hours after injection three animals of each group were sacrificed and labelled liver cells counted.
While searching for a manner of producing a clinically acceptable level of liver cell proliferation without a need for prior injury to the liver, a series of experiments were performed whereby a combination of factors was administered to subjects and liver cell proliferation measured 24 hours after administration. […] factor combinations were independently tested, each combination in a different group of animals. A first group received 4 mg/kg T3 at 0 hours. A second group received 1 mg/kg KGF at 0 hours. A third group received 1 mg/kg KGF and 4 mg/kg T3 at 0 hours. A fourth group served as control and received the vehicle or diluent only.

Test [3] deals with hepatocytes. The format is in vivo, rat. The following applies: for proportion of hepatocytes transfected/transduced (β-galactosidase): growth factor at hour 0, 1 ml retrovirus intraportally at 24 hours, killed 9 days after vector; for zones of the liver where transfected hepatocytes were found: intraportal vector at 24 hours, 9 days after vector.
Protocol: Animals were anesthetized with isoflurane. A midline laparotomy was performed, the bowel was deflected to the left and wrapped in normal saline-soaked gauze. The portal vein and hepatic artery were clamped using micro-aneurysm clips, the portal vein was cannulated with a 26-gauge needle proximal to the clip and 1 ml of retroviral supernatant was injected over 5 minutes. Hemostasis was achieved by direct pressure to the portal vein and topical thrombin (Sigma) application. The clips were removed and the abdomen sutured, and the animals were allowed to recover in a warm, quite environment. […] For peripheral vein injection, 1 ml of the retrovirus/DOGS complex was injected via tail vein as a bolus.
Transduction of liver cells was measured by β-galactosidase activity. Animals were anesthetized and sacrificed by exsanguination. The liver was removed and frozen in liquid nitrogen. Ten-micron frozen sections were cut on to glass slides, fixed in a solution of 1.25% glutaraldehyde at 4° C., washed with phosphate buffered saline (PBS) then covered in X-gal (Gibco BRL, Grand Island, N.Y.) solution (1 mg/ml, pH 7.4) and incubated overnight at 37° C. Sections were then washed in PBS, counterstained lightly with eosin or carmalum stain, dehydrated and mounted in pertex (Cellpath, Hemel Hempstead, UK). The proportion of hepatocytes expressing nuclear β-galactosidase was calculated by counting 2000 hepatocytes per section from three separate areas.
At hour 0, several groups of four rats received an administration of either a single growth factor (either 4 mg/kg T3 or 1 mg/kg KGF) or the combination of 4 mg/kg T3/1 mg/kg KGF. A control group of three rats received injections of the growth factor diluents only. At 24 hours all rats were injected intraportally with 1 ml of retrovirus during temporary hepatic artery and portal vein occlusion. All rats were killed 9 days following vector administration.

In the case of “hepatocyte growth factor: hepatocyte growth factor, cited from Kosai et al.”, the “liver cells (hepatocytes) transduced in vivo” value (“liver cells” below) in the test on hepatocytes [1] was 1.3%.

As to `N[C@@H](Cc1cc(I)c(Oc2ccc(O)c(I)c2)c(I)c1)C(=O)O` [T3, tri-iodothyronine, reference compound], in the test with hepatocytes [2], the “zones of the liver showing cell proliferation” value is “predominantly in the mid-zonal region”; the “proportion of hepatocytes proliferating (BrdU labelled, S-phase) at 24 hours” value is “approximately 10%”; the “dose producing maximal hepatocyte proliferation at 24 hours” value stood at 4 mg/kg; the “time after injection having maximum liver cell proliferation” value was determined as 24 h. Moreover, the “liver cells” value in the test on hepatocytes [1] is listed as “about 1.3%”. In addition, in the test with hepatocytes [3], the “proportion of hepatocytes transfected/transduced (β-galactosidase)” value is reported as “approximately 1.2%” and the “zones of the liver where transfected hepatocytes were found” value was “mostly found in the mid-zonal region”.

B1: KGF: full length recombinant keratinocyte growth factor polypeptide (AMGEN) (protein, UniProt P21781 1-194, looked up)
chain: MHKWILTWILPTLLYRSCFHIICLVGTISLACNDMTPEQMATNVNCSSPERHTRSYDYMEGGDIRVRRLFCRTQWYLRIDKRGKVKGTQEMKNNYNIMEIRTVAVGIVAIKGVESEFYLAMNKEGKLYAKKECNEDCNFKELILENHYNTYASAKWTHNGGEMFVALNQKGIPVRGKKTKKEQKTAHFLPMAIT
modifications: full-length
In the case of B1, in the test with hepatocytes [2], the “zones of the liver showing cell proliferation” value was “all zones of the liver”; the “proportion of hepatocytes proliferating (BrdU labelled, S-phase) at 24 hours” value is given as “approximately 9%”; the “dose producing maximal hepatocyte proliferation at 24 hours” value is recorded as 1 mg/kg; the “time after injection having maximum liver cell proliferation” value was 24 h. In the test with hepatocytes [1], the “liver cells” value was 2%. In the test on hepatocytes [3], the “proportion of hepatocytes transfected/transduced (β-galactosidase)” value is listed as “approximately 1%” and the “zones of the liver where transfected hepatocytes were found” value is “found in all zones of the liver”.
